These results are taken from PMC7269033, “A composite nanocarrier to inhibit precipitation of the weakly basic drug in the gastrointestinal tract” (Drug Delivery, 2020).

Data set [1] in a line: Cytotoxicity by MTT assay. It is filed as cell-based. As to conditions: human, Caco-2 cells, tested concentrations 0.05 μg/mL to 200 μg/mL, read-out: cell viability. On the procedure:
Cytotoxicity of DE, dabigatran etexilate-loaded single micelles (DE-SMs) and DE-CMs was investigated by the MTT assay (Zhai et al., [2013]). Caco-2 cells were supplied by KeyGEN BioTECH Co., Ltd. (Nanjing, China) and maintained in medium composite of DMEM (high glucose), 20% FBS and 1% penicillin/streptomycin solution. Cells were cultured at a density of 5 × 10^4 cells/well in 96-well plates and incubated at 37 °C under 5% CO2 for 24 h. Then, the complete medium was removed and cells were further incubated with 100 μL of complete medium containing DE, DE-SMs and DE-CMs at 37 °C for 24 h, respectively. Next, the medium was replaced with 20 μL of MTT (5 mg/mL) solution and 80 μL of fresh medium. Following 4 h of incubation, the medium containing MTT was discarded and 150 μL of DMSO was added to each well to dissolve the granular crystallization. The optical density of the samples was measured at 490 nm wavelength using a microplate ELISA analyzer (Thermo Scientific, USA) (Fan et al., [2017a]). The negative control was the group of Caco-2 cells without drugs. Cell viability was calculated as follows: (4) Cell viability (%)=(1−ODnegtive control−ODsample/ODnegtive control)×100% where ODnegative control is the optical density of the negative control group, and ODsample is the optical density of the experimental group.

Data set [2] is described as follows: Cellular transport studies (Papp, efflux ratio). It is filed as in vitro ADME. As to conditions: human. The procedure:
The Caco-2 cell monolayer is the most widespread model for cellular transport experiments to evaluate the efflux effect of P-gp (Hunter et al., [1993]). The transepithelial electrical resistance (TEER) value of Caco-2 cell monolayer model was measured using a cell resistance meter (Millicell-ERS, Millipore, USA), and models were used for transport experiments when the TEER value exceeded […] (Andrew & Cameron, [2012]).
For apical to basolateral (AP > BL) (basolateral to apical (BL > AP)) transport experiments, 1.5 mL of Hank’s Balanced Salt Solution (HBSS) loaded with DE, DE-SMs and DE-CMs (the concentration of DE in different groups was 200 μg/mL) was added to the AP side (BL side) and 2.6 mL of blank HBSS was added to the BL side (AP side), respectively. At fixed time intervals, 400 μL aliquots were taken from the BL side (AP side) with replacement of the fresh HBSS. The samples were frozen in a refrigerator at –80 °C until HPLC analysis. The HPLC method employed an ODS C18 column (250 × 4.6 mm, 5 μm, Dikma Technologies, China) and a methanol-water (75:25, v/v) mobile phase with a flow rate of 1.0 mL/min. The detection wavelength was 316 nm and the injection volume was 20 μL. The apparent permeability coefficient (Papp) and efflux ratio (ER) were calculated as follows: (5) Papp=dQ/dt/A×C0 where dQ/dt is the steady-state appearance rate of DE on the receiver side, C0 is the initial concentration of DE on the supply side, and A is the surface area of the cell monolayer. (6) ER=Papp(BL→AP)/Papp(AP→BL) where Papp(BL→AP) is the Papp value of DE transferred from the BL side to AP side, and Papp(AP→BL) is the Papp value of DE transferred from the AP side to BL side.

Details of data set [3]: method as in Chai et al., 2016. As to conditions: 37 °C, ref Chai et al., 2016, cited from earlier work.
For data set [4] the following is noted: cited from earlier work.

Converted amounts (≈) assume the structure as drawn. Like-named read-outs stand apart in the source and are kept apart here.

In the case of `CCCCCCOC(=O)NC(=N)c1ccc(NCc2nc3cc(C(=O)N(CCC(=O)OCC)c4ccccn4)ccc3n2C)cc1` [DE, dabigatran etexilate], the viability (as a rule, the share of living cells, or the viability signal relative to a control) at 24 h in data set [1] was above 80%. Besides, the efflux ratio at 200 μg/mL in data set [2] (Caco-2, Papp(BL→AP)/Papp(AP→BL), read-out: ER value (efflux ratio)) stood at 14.2. Besides, in data set [2] (Caco-2 monolayer, DE 200 μg/mL, read-out: Papp (AP to BL)), the Papp A→B at 200 μg/mL is 0.59 ± 0.055 ×10⁻⁶ cm/s. In addition, the Papp B→A at 200 μg/mL in data set [2] (Caco-2 monolayer, DE 200 μg/mL, read-out: Papp (BL to AP)) was found to be 8.44 ± 0.072 ×10⁻⁶ cm/s. Further, the results for the solubility in data set [3] (SGF) and in data set [3] (SIF) were 19245 µg/mL (≈ 30.7 mM) and 3.06 µg/mL (≈ 0.00487 mM), respectively. Further, the absolute bioavailability entry in data set [4] (after oral administration, ref Greig & Mckeage, 2014) is “approximately 6.5%”. The oral bioavailability in data set [4] (ref Wang et al., 2013) is on record as 3–7%.
